US20250186433A1, “ACSS2 INHIBITORS AND METHODS OF USE THEREOF” (EpiVario, Inc., priority 2017, published 2025)

The molecules below were run against ACSS2 (Homo sapiens, UniProt Q9NR19) (assay: biochemical).
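Further: Pyrophosphatase-coupled ACSS2 enzyme assay, 10 nM protein incubated 90 min at 37 °C with ATP, CoA and acetate, released phosphate read by Biomol Green absorbance at 620 nm.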
Description: The assay is based on a coupling reaction with Pyrophosphatase: ACSS2 is converting ATP+CoA+Acetate=>AMP+pyrophosphate+Acetyl-CoA (Ac-CoA). Pyrophosphatase converts pyrophosphate, a product of the ACSS2 reaction, to phosphate which can be detected by measuring the absorbance at 620 nm after incubation with the Biomol green reagent (Enzo life Science, BML-AK111).
At the end of the reaction, Biomol Green was added for 30 minutes at RT and the activity was measured by reading the absorbance at 620 nm.

Sequence of ACSS2 (Q9NR19 whole entry): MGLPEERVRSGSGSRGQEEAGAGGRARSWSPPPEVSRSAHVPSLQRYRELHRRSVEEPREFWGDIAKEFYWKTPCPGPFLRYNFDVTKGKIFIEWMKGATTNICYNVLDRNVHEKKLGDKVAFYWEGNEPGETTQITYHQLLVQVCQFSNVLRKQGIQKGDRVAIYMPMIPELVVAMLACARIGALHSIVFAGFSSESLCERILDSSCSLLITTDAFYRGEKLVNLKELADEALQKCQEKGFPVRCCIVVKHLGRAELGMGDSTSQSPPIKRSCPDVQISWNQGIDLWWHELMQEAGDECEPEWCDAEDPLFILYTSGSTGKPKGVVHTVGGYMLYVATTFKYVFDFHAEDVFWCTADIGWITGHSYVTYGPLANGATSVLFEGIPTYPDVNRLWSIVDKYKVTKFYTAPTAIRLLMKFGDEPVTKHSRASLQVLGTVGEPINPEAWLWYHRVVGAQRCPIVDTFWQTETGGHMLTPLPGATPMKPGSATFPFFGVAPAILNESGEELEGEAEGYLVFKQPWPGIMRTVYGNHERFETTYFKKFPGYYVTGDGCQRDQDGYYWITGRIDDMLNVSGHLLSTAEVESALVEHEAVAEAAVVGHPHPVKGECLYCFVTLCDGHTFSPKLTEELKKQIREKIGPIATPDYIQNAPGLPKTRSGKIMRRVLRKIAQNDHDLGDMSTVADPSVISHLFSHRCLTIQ

SMILES | IC50 [nM]
CCc1cccc(NC(=O)C2C(=O)N(c3ccc([N+](=O)[O-])cc3)N=C2C)c1 (stereo not shown) [compound 157] | 1000 to 100000
CC(F)(F)c1cccc(NC(=O)C2C(=O)N(c3ccc(OC(F)F)cc3)N=C2CS)c1 (stereo not shown) [compound 339] | 100 to 1000
CC1=NN(c2cc(-c3cccnc3)cc(-c3cccc4[nH]ccc34)c2)C(=O)C1C(=O)Nc1cccc(C(C)(F)F)c1 (stereo not shown) [compound 465] | 6 to 100
COc1ccccc1Cc1cc(-c2ccccc2)cc(N2N=C(C)C(C(=O)Nc3cccc(C(C)(F)F)c3)C2=O)c1 (stereo not shown) [compound 467] | 6 to 100
CON(C)C(=O)C(F)(F)c1cccc(NC(=O)C2C(=O)N(c3ccc(OC(F)F)c(-c4ccccn4)c3)N=C2C)c1 (stereo not shown) [compound 471, N-(3-(1,1-difluoro-2-(methoxy(methyl)amino)-2-oxoethyl)phenyl)-1-(4-(difluoromethoxy)-3-(pyridin-2-yl)phenyl)-3-methyl-5-oxo-4,5-dihydro-1H-pyrazole-4-carboxamide] | 100 to 1000
CCC(F)(F)c1cccc(NC(=O)C2C(=O)N(c3ccc4ccn(-c5ccccc5)c4c3)N=C2C)c1 (stereo not shown) [compound 472, N-[3-(1,1-difluoropropyl)phenyl]-3-methyl-5-oxo-1-(1-phenylindol-6-yl)-4H-pyrazole-4-carboxamide] | 0.01 to 6
CC1=NN(c2cc(-c3cccnc3)cc(-c3ccc4cc[nH]c4c3)c2)C(=O)C1C(=O)Nc1cccc(C(C)(F)F)c1 (stereo not shown) [compound 473] | 6 to 100
CCC(F)(F)c1cccc(NC(=O)C2C(=O)N(c3ccc4cccnc4c3)N=C2C)c1 (stereo not shown) [compound 474, N-(3-(1,1-difluoropropyl)phenyl)-3-methyl-5-oxo-1-(quinolin-7-yl)-4,5-dihydro-1H-pyrazole-4-carboxamide] | 0.01 to 6
CCC(F)(F)c1cccc(NC(=O)C2C(=O)N(c3ccc4ccn(C(=O)c5ccccc5)c4c3)N=C2C)c1 (stereo not shown) [compound 475, 1-(1-benzoylindol-6-yl)-N-[3-(1,1-difluoropropyl)phenyl]-3-methyl-5-oxo-4H-pyrazole-4-carboxamide] | 0.01 to 6
CCC(F)(F)c1cccc(NC(=O)C2C(=O)N(c3ccc4ccn(S(=O)(=O)c5ccccc5)c4c3)N=C2C)c1 (stereo not shown) [compound 476, N-(3-(1,1-difluoropropyl)phenyl)-3-methyl-5-oxo-1-(1-(phenylsulfonyl)-1H-indol-6-yl)-4,5-dihydro-1H-pyrazole-4-carboxamide] | 0.01 to 6
CCC(F)(F)c1cccc(NC(=O)C2C(=O)N(c3ccc4ccn(C(=O)c5ccccc5C)c4c3)N=C2C)c1 (stereo not shown) [compound 479] | 0.01 to 6
CCC(F)(F)c1cccc(NC(=O)C2C(=O)N(c3ccc4ccn(C(=O)c5ccc(C)cc5)c4c3)N=C2C)c1 (stereo not shown) [compound 480, N-[3-(1,1-difluoropropyl)phenyl]-3-methyl-1-[1-(4-methylbenzoyl)indol-6-yl]-5-oxo-4H-pyrazole-4-carboxamide] | 6 to 100
CCC(F)(F)c1ccnc(NC(=O)C2C(=O)N(c3ccc(OC(F)F)cc3)N=C2C)c1 (stereo not shown) [compound 484, 1-(4-(difluoromethoxy)phenyl)-N-(4-(1,1-difluoropropyl)pyridin-2-yl)-3-methyl-5-oxo-4,5-dihydro-1H-pyrazole-4-carboxamide] | 6 to 100
CCC(F)(F)c1cccc(NC(=O)C2C(=O)N(c3ccc4ccsc4c3)N=C2C)c1 (stereo not shown) [compound 485, 1-(benzo[b]thiophen-6-yl)-N-(3-(1,1-difluoropropyl)phenyl)-3-methyl-5-oxo-4,5-dihydro-1H-pyrazole-4-carboxamide] | 0.01 to 6
CCC(F)(F)c1cccc(NC(=O)C2C(=O)N(c3ccc(OC(F)F)cc3)N=C2C)n1 (stereo not shown) [compound 486, 1-(4-(difluoromethoxy)phenyl)-N-(6-(1,1-difluoropropyl)pyridin-2-yl)-3-methyl-5-oxo-4,5-dihydro-1H-pyrazole-4-carboxamide] | 0.01 to 6
CCC(F)(F)c1cccc(NC(=O)C2C(=O)N(c3ccc4cnn(S(=O)(=O)c5ccc(C)cc5)c4c3)N=C2C)c1 (stereo not shown) [compound 487, N-[3-(1,1-difluoropropyl)phenyl]-3-methyl-5-oxo-1-[1-(p-tolylsulfonyl)indazol-6-yl]-4H-pyrazole-4-carboxamide] | 6 to 100
CCC(F)(F)c1cccc(NC(=O)C2C(=O)N(c3ccc4nccnc4c3)N=C2C)c1 (stereo not shown) [compound 488, N-(3-(1,1-difluoropropyl)phenyl)-3-methyl-5-oxo-1-(quinoxalin-6-yl)-4,5-dihydro-1H-pyrazole-4-carboxamide] | 0.01 to 6
CCC(F)(F)c1cccc(NC(=O)C2C(=O)N(c3cnc(Cl)cn3)N=C2C)c1 (stereo not shown) [compound 489, 1-(5-chloropyrazin-2-yl)-N-(3-(1,1-difluoropropyl)phenyl)-3-methyl-5-oxo-4,5-dihydro-1H-pyrazole-4-carboxamide] | 0.01 to 6
CCC(F)(F)c1cccc(NC(=O)C2C(=O)N(c3ccc4ccoc4c3)N=C2C)c1 (stereo not shown) [compound 491, 1-(benzofuran-6-yl)-N-(3-(1,1-difluoropropyl)phenyl)-3-methyl-5-oxo-4,5-dihydro-1H-pyrazole-4-carboxamide] | 0.01 to 6
C/C=C(/F)c1cccc(NC(=O)C2C(=O)N(c3ccc(OC(F)F)cc3)N=C2C)c1 (stereo not shown) [compound 495, (E)-1-(4-(difluoromethoxy)phenyl)-N-(3-(1-fluoroprop-1-en-1-yl)phenyl)-3-methyl-5-oxo-4,5-dihydro-1H-pyrazole-4-carboxamide] | 0.01 to 6
CC1=NN(c2ccc(OC(F)F)cc2)C(=O)C1C(=O)Nc1cccc(C(F)=C(C)C)c1 (stereo not shown) [compound 496, 1-[4-(difluoromethoxy)phenyl]-N-[3-(1-fluoro-2-methyl-prop-1-enyl)phenyl]-3-methyl-5-oxo-4H-pyrazole-4-carboxamide] | 6 to 100

Other lines, results leading:

IC50 [nM] | SMILES
6 to 100 | COc1cccc(Cc2cc(-c3cccnc3)cc(N3N=C(C)C(C(=O)Nc4cccc(C(C)(F)F)c4)C3=O)c2)c1 (stereo not shown) [compound 461]
0.01 to 6 | CCC(F)(F)c1cccc(NC(=O)C2C(=O)N(c3ccc4ccn(C)c4c3)N=C2C)c1 (stereo not shown) [compound 462, N-[3-(1,1-difluoropropyl)phenyl]-3-methyl-1-(1-methylindol-6-yl)-5-oxo-4H-pyrazole-4-carboxamide]
0.01 to 6 | CCC(F)(F)c1cccc(NC(=O)C2C(=O)N(c3ccc4ccn(Cc5ccccc5)c4c3)N=C2C)c1 (stereo not shown) [compound 463, 1-(1-benzylindol-6-yl)-N-[3-(1,1-difluoropropyl)phenyl]-3-methyl-5-oxo-4H-pyrazole-4-carboxamide]
0.01 to 6 | CC1=NN(c2ccc(OC(F)F)cn2)C(=O)C1C(=O)Nc1cccc(C(F)(F)C2CC2)c1 (stereo not shown) [compound 464, N-(3-(cyclopropyldifluoromethyl)phenyl)-1-(5-(difluoromethoxy)pyridin-2-yl)-3-methyl-5-oxo-4,5-dihydro-1H-pyrazole-4-carboxamide]
6 to 100 | COc1ccccc1Cc1cc(-c2cccnc2)cc(N2N=C(C)C(C(=O)Nc3cccc(C(C)(F)F)c3)C2=O)c1 (stereo not shown) [compound 466]
0.01 to 6 | CC1=NN(c2cc(Br)cc(I)c2)C(=O)C1C(=O)Nc1cccc(C(C)(F)F)c1 (stereo not shown) [compound 468]
100 to 1000 | CC1=NN(c2ccc(OC(F)F)cc2)C(=O)C1C(=O)Nc1cccc(C(F)(F)C2CCCC2)c1 (stereo not shown) [compound 470, N-(3-(cyclopentyldifluoromethyl)phenyl)-1-(4-(difluoromethoxy)phenyl)-3-methyl-5-oxo-4,5-dihydro-1H-pyrazole-4-carboxamide]
6 to 100 | CCC(F)(F)c1cccc(NC(=O)C2C(=O)N(c3ccc4ccn(CCc5ccccc5)c4c3)N=C2C)c1 (stereo not shown) [compound 477, N-[3-(1,1-difluoropropyl)phenyl]-3-methyl-5-oxo-1-[1-(2-phenylethyl)indol-6-yl]-4H-pyrazole-4-carboxamide]
0.01 to 6 | CCCC(=O)n1ccc2ccc(N3N=C(C)C(C(=O)Nc4cccc(C(F)(F)CC)c4)C3=O)cc21 (stereo not shown) [compound 478, 1-(1-butanoylindol-6-yl)-N-[3-(1,1-difluoropropyl)phenyl]-3-methyl-5-oxo-4H-pyrazole-4-carboxamide]
0.01 to 6 | CC1=NN(c2ccc(OC(F)F)cc2)C(=O)C1C(=O)Nc1cccc(C(F)(F)C2CC2)c1 (stereo not shown) [compound 481, N-(3-(cyclopropyldifluoromethyl)phenyl)-1-(4-(difluoromethoxy)phenyl)-3-methyl-5-oxo-4,5-dihydro-1H-pyrazole-4-carboxamide]
0.01 to 6 | CCC(F)(F)c1cccc(NC(=O)C2C(=O)N(c3ccc4ccn(C(=O)c5ccc(O)cc5)c4c3)N=C2C)c1 (stereo not shown) [compound 482, N-(3-(1,1-difluoropropyl)phenyl)-1-(1-(4-hydroxybenzoyl)-1H-indol-6-yl)-3-methyl-5-oxo-4,5-dihydro-1H-pyrazole-4-carboxamide]
6 to 100 | CCC(F)(F)c1cccc(NC(=O)C2C(=O)N(c3ccc4ccn(C(=O)c5cccc(C)c5)c4c3)N=C2C)c1 (stereo not shown) [compound 483, N-[3-(1,1-difluoropropyl)phenyl]-3-methyl-1-[1-(3-methylbenzoyl)indol-6-yl]-5-oxo-4H-pyrazole-4-carboxamide]
6 to 100 | CCC(F)(F)c1cccc(NC(=O)C2C(=O)N(c3ccc(Cl)nn3)N=C2C)c1 (stereo not shown) [compound 490, 1-(6-chloropyridazin-3-yl)-N-(3-(1,1-difluoropropyl)phenyl)-3-methyl-5-oxo-4,5-dihydro-1H-pyrazole-4-carboxamide]
0.01 to 6 | CCC(F)(F)c1cccc(NC(=O)C2C(=O)N(c3cccc4occc34)N=C2C)c1 (stereo not shown) [compound 492, 1-(benzofuran-4-yl)-N-(3-(1,1-difluoropropyl)phenyl)-3-methyl-5-oxo-4,5-dihydro-1H-pyrazole-4-carboxamide]
0.01 to 6 | CCC(F)(F)c1cccc(NC(=O)C2C(=O)N(c3ccc4ccn(C(=O)c5cccc(O)c5)c4c3)N=C2C)c1 (stereo not shown) [compound 493, N-(3-(1,1-difluoropropyl)phenyl)-1-(1-(3-hydroxybenzoyl)-1H-indol-6-yl)-3-methyl-5-oxo-4,5-dihydro-1H-pyrazole-4-carboxamide]
0.01 to 6 | C/C=C(\F)c1cccc(NC(=O)C2C(=O)N(c3ccc(OC(F)F)cc3)N=C2C)c1 (stereo not shown) [compound 494, (Z)-1-(4-(difluoromethoxy)phenyl)-N-(3-(1-fluoroprop-1-en-1-yl)phenyl)-3-methyl-5-oxo-4,5-dihydro-1H-pyrazole-4-carboxamide]
